Assay results published in patent publication US4863900A (priority 1987, dated 1989).

Legend:
[1] = system: influenza, Newcastle disease, tobacco mosaic, poliomyelitis, and mumps viruses; conditions: cited from earlier work
[2] = system: HSV2; assay: Virus inactivation, surviving virus by plaque assay on VERO cells; conditions: for Percent Survivors HSV-2: 1 hr at 37° C.
[3] = system: HSV1; assay: as above; conditions: for inactivation of HSV1, temperature effect: 1 hour
[4] = system: HSV1; assay: Injection of poly-L-histidine treated HSV1 into mice, observed 14 days; type: in vivo, Balb/C mice; conditions: HSV1 incubated with 100 μg His-75 in 1 ml, pH 6.0, one hour at 37° C., 50 μl in lower left jaw
Source text: 3. All animals were observed daily for 14 days.

[5] = 100 μg/ml at 37° C., pH 6.0, samples at 1, 15, 30, 45 and 60 minutes
[6] = pH 5, 100 μg/ml, 1 hour at 37° C.
[7] = pH 6, 100 μg/ml, 1 hour at 37° C.
[8] = pH 7, 100 μg/ml, 1 hour at 37° C.
[9] = pH 8, 100 μg/ml, 1 hour at 37° C.

poly-L-lysine
inhibitory activity against viruses [1]: inhibitory activity

poly-L-Histidine [His-75]
Percent Survivors HSV-2 ([2]; 1 μg/ml, pH 6.0): 62%
Percent Survivors HSV-2 ([2]; 10 μg/ml, pH 6.0): 84%
length of time required for inactivation of HSV2 [2, 5]: inactivated by as little as one minute of exposure
inactivation of HSV2, temperature effect ([2]; 4° C., 22° C. and 37° C., 100 μg/ml, pH 6.0, 1 hour): inactivation was almost complete
ID50 (amount of drug required to inactivate 50% of the virus) ([2]; HSV2, pH 6.0, 1 hour at 37° C., linear regression analysis): 41.15 µg/mL
inactivation of HSV2 [2, 6]: inactivated
inactivation of HSV2 [2, 7]: inactivated
inactivation of HSV2 [2, 8]: not
inactivation of HSV2 [2, 9]: not and Some small amount of inactivation
Percent Survivors HSV-1 ([3]; 1 μg/ml, pH 6.0, 1 hr at 37° C.): 83%
Percent Survivors HSV-1 ([3]; 10 μg/ml, pH 6.0, 1 hr at 37° C.): 64%
length of time required for inactivation of HSV1 [3, 5]: inactivated by as little as one minute of exposure
Percent Survivors HSV-1 ([3]; 100 μg/ml, pH 6.0, 30 minutes, 37° C., not shifted): 0%
Percent Survivors HSV-1 ([3]; 100 μg/ml, pH 6.0, 60 minutes, 37° C., not shifted): 0%
inactivation of HSV1, temperature effect ([3]; 4° C., 100 μg/ml, pH 6.0): a small amount of HSV1 survived
inactivation of HSV1, temperature effect ([3]; 22° C. and 37° C., 100 μg/ml, pH 6.0): inactivation was almost complete
ID50 (amount of drug required to inactivate 50% of the virus) ([3]; HSV1, pH 6.0, 1 hour at 37° C., linear regression analysis): 44.38 µg/mL
inactivation of HSV1 [3, 6]: efficiently inactivated
inactivation of HSV1 [3, 7]: efficiently inactivated
inactivation of HSV1 [3, 8]: not
inactivation of HSV ([3]; pH 7.2): does not inactivate
inactivation of HSV1 [3, 9]: not
health of mice injected with poly-L-histidine treated HSV1 ([4]; listed as Poly-L-histidine): failed to cause disease
health of mice injected with poly-L-histidine treated HSV1 ([4]; listed as poly-L-histidine): remained healthy throughout the study

poly-L-arginine
inhibitory activity against viruses [1]: inhibitory activity

poly-L-Histidine [His-64]
inactivation of HSV1 [3, 6]: inactivated
inactivation of HSV1 [3, 7]: inactivated
inactivation of HSV1 [3, 8]: Some minor inactivation
inactivation of HSV1 [3, 9]: none
